In one series the test system is habitual smoker. The experiment in a line: Low dose intranasal noribogaine on smoking craving. Format: in vivo, human. The following applies: nanogram amount absorbed intranasally, during a period of several hours. The source says: A habitual smoker intranasally absorbed a nanogram amount of noribogaine hydrochloride. […] The patient was unaware during that period of any nicotine or smoking cravings.

A further series concerns nicotine dependent rats. As to the kind of experiment: Nicotine self-administration test. In kind it is in vivo, Sprague-Dawley rats. The following applies: all treatments, repeated measure ANOVA, P>0.05.
A short description of series [1]: Ascending single oral dose pharmacokinetics of noribogaine in healthy volunteers (plasma, urine, LCMSMS).

Each structure is given as a SMILES string.

The values that follow come from patent US9561232B2, “Low dose noribogaine for treating nicotine addiction and preventing relapse of nicotine use” (priority 2014, dated 2017).

Consider `CC[C@@H]1C[C@H]2CC3c4[nH]c5ccc(O)cc5c4CCN(C2)C31.Cl` [noribogaine hydrochloride], for which the craving to smoke result in the series on habitual smoker is listed as “any craving to smoke stopped”.

For the compound `c1cnc2cc3c(cc2n1)[C@@H]1CNC[C@H]3C1` [varenicline, Varenicline, reference compound], in the series with nicotine dependent rats, the “inactive lever press during nicotine self-administration” value is given as “no significant main effect of treatment”.

For the compound `CC[C@H]1C[C@@H]2C[C@H]3c4[nH]c5ccc(OC6OC(C(=O)O)C(O)C(O)C6O)cc5c4CCN(C2)[C@@H]13` (some centres unmarked) [Noribogaine glucuronide, noribogaine glucuronide], the “time by which detected in plasma of all subjects” value in series [1] (30 mg and 60 mg noribogaine dose groups) is no more than 0.75 h. In addition, the “proportion of Cmax and AUC relative to noribogaine” value in series [1] (both dose groups (30 mg, 60 mg)) is 3-4%. For the same compound, the “time of peak concentrations after noribogaine dosing” value in series [1] (noribogaine glucuronide in plasma, 30 mg and 60 mg dose groups) lay within 3 to 4 h.
